In this experiment the target is T1, Estrogen receptor (Homo sapiens, UniProt P03372).
T1 sequence (P03372 whole entry): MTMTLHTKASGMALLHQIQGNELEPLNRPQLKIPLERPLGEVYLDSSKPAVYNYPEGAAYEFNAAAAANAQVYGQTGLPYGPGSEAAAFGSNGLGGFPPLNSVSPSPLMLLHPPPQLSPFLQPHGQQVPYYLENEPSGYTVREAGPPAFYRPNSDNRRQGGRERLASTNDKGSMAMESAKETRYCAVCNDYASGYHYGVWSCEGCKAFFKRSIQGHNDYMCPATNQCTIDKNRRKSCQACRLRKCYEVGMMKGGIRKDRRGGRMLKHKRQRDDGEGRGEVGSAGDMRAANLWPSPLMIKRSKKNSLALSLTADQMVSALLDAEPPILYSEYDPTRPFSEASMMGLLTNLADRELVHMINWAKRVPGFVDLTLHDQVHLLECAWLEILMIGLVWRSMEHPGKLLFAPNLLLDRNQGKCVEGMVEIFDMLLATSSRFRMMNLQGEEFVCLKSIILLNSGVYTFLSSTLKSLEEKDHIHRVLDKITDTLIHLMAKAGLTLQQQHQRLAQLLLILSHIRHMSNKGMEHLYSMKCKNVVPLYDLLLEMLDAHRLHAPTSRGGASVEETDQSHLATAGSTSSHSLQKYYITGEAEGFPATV

Molecules are shown by their SMILES.

Description: Binding affinity for human Estrogen receptor alpha

Usually IC50 stands for the concentration needed to halve the response being measured. A lower IC50 goes with higher potency. In turn, `COc1cc(O)cc2cc(-c3ccc(O)c(F)c3)oc12` yielded an IC50 of 990 nM.

In turn, `COc1cc(O)c(Br)c2cc(-c3ccc(O)c(F)c3)oc12` had an IC50 of 335 nM.

For the origin of these results see ChEMBL document CHEMBL1137038, “7-Substituted 2-phenyl-benzofurans as ER beta selective ligands” (Bioorg Med Chem Lett, 2004).
